# Measured values as given in PubChem BioAssay (NCI).
#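 Where inhibition never reached the appropriate level, the endpoint shown equals the highest concentration tested. Otherwise, values were interpolated linearly from a five-concentration, 48-hour dose response in 96-well plates. GI50: concentration for 50% inhibition of growth. TGI: concentration producing complete growth inhibition.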
# Legend:
# Experiment in all cases: inhibition of tumour cell growth, NCI panel, 48 h
# [1] = system: SW-620 colon
# [2] = system: HCT-15 colon
# [3] = system: MOLT-4 leukemia
# [4] = system: UACC-62 melanoma
# [5] = system: LXFL 529 NSCLC
# [6] = system: OVCAR-5 ovarian
# [7] = system: HOP-92 NSCLC
# [8] = system: UACC-257 melanoma
# [9] = system: A549 NSCLC
# [10] = system: LOX IMVI melanoma
# [11] = system: SNB-78 CNS
# [12] = system: KM20L2 colon
# [13] = system: 786-0 renal
# [14] = system: TK-10 renal
# [15] = system: SF-539 CNS
# [16] = system: OVCAR-3 ovarian
# [17] = system: HCC-2998 colon
# [18] = system: M14 melanoma
# [19] = system: K-562 leukemia
# [20] = system: SNB-19 CNS
# [21] = system: OVCAR-4 ovarian
# [22] = system: NCI-H460 lung
# [23] = system: MALME-3M melanoma
# [24] = system: NCI-H522 lung
# [25] = system: SN12C renal
# [26] = system: A498 renal
# [27] = system: KM12 colon
# [28] = system: HOP-62 NSCLC
# [29] = system: SK-MEL-28 melanoma
# [30] = system: IGROV1 ovarian
# [31] = system: SK-MEL-2 melanoma
# [32] = system: SK-OV-3 ovarian
# [33] = system: HCT-116 colon
# [34] = system: NCI-H23 lung
# [35] = system: SF-295 CNS
# [36] = system: SF-268 CNS
# [37] = system: RPMI-8226 leukemia
# [38] = system: U251 CNS
# [39] = system: OVCAR-8 ovarian
# [40] = system: DLD-1 colon
# [41] = system: CCRF-CEM leukemia
# [42] = system: EKVX NSCLC
# [43] = system: HL-60(TB) leukemia
# [44] = system: ACHN renal
# [45] = system: SK-MEL-5 melanoma
# [46] = system: DMS 273 small cell lung
# [47] = system: UO-31 renal
# [48] = system: SNB-75 CNS
# [49] = system: COLO 205 colon
# [50] = system: HT29 colon
# [51] = system: CAKI-1 renal
# [52] = system: DMS 114 small cell lung
# [53] = system: XF 498 CNS
# [54] = system: M19-MEL melanoma
# [55] = system: NCI-H226 lung
# [56] = system: RXF 393 renal
# [57] = system: SR leukemia
# [58] = system: HOP-18 NSCLC
structure (smiles),measurement,setting,value
CC(C)C(=O)[O-].CC(C)C(=O)[O-].N.N.N.N.[Co+3].[O-][Cl+3]([O-])([O-])[O-],GI50,[1],> 100 µM
same,TGI,[1],> 100 µM
same,GI50,[2],> 100 µM
same,TGI,[2],> 100 µM
same,GI50,[3],> 100 µM
same,TGI,[3],> 100 µM
same,GI50,[4],> 100 µM
same,TGI,[4],> 100 µM
same,GI50,[5],> 100 µM
same,TGI,[5],> 100 µM
same,GI50,[6],> 100 µM
same,TGI,[6],> 100 µM
same,GI50,[7],> 100 µM
same,TGI,[7],> 100 µM
same,GI50,[8],> 100 µM
same,TGI,[8],> 100 µM
same,GI50,[9],> 100 µM
same,TGI,[9],> 100 µM
same,GI50,[10],> 100 µM
same,TGI,[10],> 100 µM
same,GI50,[11],> 100 µM
same,TGI,[11],> 100 µM
same,GI50,[12],> 100 µM
same,TGI,[12],> 100 µM
same,GI50,[13],> 100 µM
same,TGI,[13],> 100 µM
same,GI50,[14],> 100 µM
same,TGI,[14],> 100 µM
same,GI50,[15],> 100 µM
same,TGI,[15],> 100 µM
same,GI50,[16],> 100 µM
same,TGI,[16],> 100 µM
same,GI50,[17],> 100 µM
same,TGI,[17],> 100 µM
same,GI50,[18],> 100 µM
same,TGI,[18],> 100 µM
same,GI50,[19],> 100 µM
same,TGI,[19],> 100 µM
same,GI50,[20],> 100 µM
same,TGI,[20],> 100 µM
same,GI50,[21],> 100 µM
same,TGI,[21],> 100 µM
same,GI50,[22],> 100 µM
same,TGI,[22],> 100 µM
same,GI50,[23],> 100 µM
same,TGI,[23],> 100 µM
same,GI50,[24],> 100 µM
same,TGI,[24],> 100 µM
same,GI50,[25],> 100 µM
same,TGI,[25],> 100 µM
same,GI50,[26],> 100 µM
same,TGI,[26],> 100 µM
same,GI50,[27],> 100 µM
same,TGI,[27],> 100 µM
same,GI50,[28],> 100 µM
same,TGI,[28],> 100 µM
same,GI50,[29],> 100 µM
same,TGI,[29],> 100 µM
same,GI50,[30],> 100 µM
same,TGI,[30],> 100 µM
same,GI50,[31],> 100 µM
same,TGI,[31],> 100 µM
same,GI50,[32],> 100 µM
same,TGI,[32],> 100 µM
same,GI50,[33],> 100 µM
same,TGI,[33],> 100 µM
same,GI50,[34],> 100 µM
same,TGI,[34],> 100 µM
same,GI50,[35],> 100 µM
same,TGI,[35],> 100 µM
same,GI50,[36],> 100 µM
same,TGI,[36],> 100 µM
same,GI50,[37],> 100 µM
same,TGI,[37],> 100 µM
same,GI50,[38],> 100 µM
same,TGI,[38],> 100 µM
same,GI50,[39],> 100 µM
same,TGI,[39],> 100 µM
same,GI50,[40],> 100 µM
same,TGI,[40],> 100 µM
same,GI50,[41],> 100 µM
same,TGI,[41],> 100 µM
same,GI50,[42],> 100 µM
same,TGI,[42],> 100 µM
same,GI50,[43],> 100 µM
same,TGI,[43],> 100 µM
same,GI50,[44],> 100 µM
same,TGI,[44],> 100 µM
same,GI50,[45],> 100 µM
same,TGI,[45],> 100 µM
same,GI50,[46],> 100 µM
same,TGI,[46],> 100 µM
same,GI50,[47],> 100 µM
same,TGI,[47],> 100 µM
same,GI50,[48],> 100 µM
same,TGI,[48],> 100 µM
same,GI50,[49],> 100 µM
same,TGI,[49],> 100 µM
same,GI50,[50],> 100 µM
same,TGI,[50],> 100 µM
CCn1c(=O)c2ccccc2n2c(=O)c3cc4ccccc4cc3nc12,TGI,[1],> 100 µM
same,TGI,[51],> 100 µM
same,TGI,[52],> 100 µM
same,TGI,[2],> 100 µM
same,TGI,[3],> 100 µM
same,TGI,[53],49 µM
same,TGI,[4],> 100 µM
same,TGI,[5],> 100 µM
same,TGI,[6],> 100 µM
same,TGI,[8],> 100 µM
same,TGI,[9],> 100 µM
same,TGI,[10],> 100 µM
same,TGI,[11],> 100 µM
same,TGI,[12],> 100 µM
same,TGI,[13],> 100 µM
same,TGI,[14],> 100 µM
same,TGI,[15],> 100 µM
same,TGI,[16],> 100 µM
same,TGI,[17],> 100 µM
same,TGI,[18],> 100 µM
same,TGI,[54],> 100 µM
same,TGI,[19],> 100 µM
same,TGI,[20],> 100 µM
same,TGI,[22],> 100 µM
same,TGI,[23],> 100 µM
same,TGI,[24],> 100 µM
same,TGI,[25],> 100 µM
same,TGI,[26],> 100 µM
same,TGI,[27],> 100 µM
same,TGI,[28],> 100 µM
same,TGI,[30],> 100 µM
same,TGI,[31],> 100 µM
same,TGI,[32],> 100 µM
same,TGI,[33],> 100 µM
same,TGI,[34],> 100 µM
same,TGI,[35],80 µM
same,TGI,[55],> 100 µM
same,TGI,[36],> 100 µM
same,TGI,[37],> 100 µM
same,TGI,[38],> 100 µM
same,TGI,[56],37 µM
same,TGI,[39],> 100 µM
same,TGI,[40],> 100 µM
same,TGI,[41],> 100 µM
same,TGI,[42],> 100 µM
same,TGI,[43],> 100 µM
same,TGI,[44],> 100 µM
same,TGI,[45],> 100 µM
same,TGI,[46],> 100 µM
same,TGI,[47],> 100 µM
same,TGI,[48],95.3 µM
same,TGI,[49],> 100 µM
same,TGI,[50],> 100 µM
CCCCn1c2ccccc2c2ccc3c(c21)C(=O)C=CC3=O,TGI,[1],> 100 µM
same,TGI,[51],> 100 µM
same,TGI,[52],> 100 µM
same,TGI,[2],> 100 µM
same,TGI,[3],> 100 µM
same,TGI,[4],> 100 µM
same,TGI,[5],> 100 µM
same,TGI,[6],> 100 µM
same,TGI,[57],> 100 µM
same,TGI,[7],> 100 µM
same,TGI,[8],> 100 µM
same,TGI,[9],> 100 µM
same,TGI,[58],> 100 µM
same,TGI,[10],> 100 µM
same,TGI,[11],> 100 µM
same,TGI,[12],> 100 µM
same,TGI,[13],> 100 µM
same,TGI,[14],> 100 µM
same,TGI,[15],> 100 µM
same,TGI,[16],> 100 µM
same,TGI,[17],> 100 µM
same,TGI,[18],> 100 µM
same,TGI,[54],1.04 µM
same,TGI,[19],> 100 µM
same,TGI,[20],> 100 µM
same,TGI,[21],> 100 µM
same,TGI,[22],> 100 µM
same,TGI,[23],> 100 µM
same,TGI,[24],> 100 µM
same,TGI,[25],> 100 µM
same,TGI,[26],> 100 µM
same,TGI,[27],> 100 µM
same,TGI,[28],> 100 µM
same,TGI,[29],> 100 µM
same,TGI,[30],> 100 µM
same,TGI,[31],> 100 µM
same,TGI,[32],> 100 µM
same,TGI,[33],> 100 µM
same,TGI,[34],> 100 µM
same,TGI,[35],> 100 µM
same,TGI,[55],> 100 µM
same,TGI,[36],> 100 µM
same,TGI,[37],> 100 µM
same,TGI,[38],> 100 µM
same,TGI,[39],> 100 µM
same,TGI,[40],> 100 µM
same,TGI,[44],> 100 µM
same,TGI,[45],> 100 µM
same,TGI,[46],> 100 µM
same,TGI,[47],> 100 µM
same,TGI,[48],0.638 µM
same,TGI,[49],> 100 µM
same,TGI,[50],3.46 µM
